In ChEMBL document CHEMBL4000252, “Discovery of N-(2-aminoethyl)-N-benzyloxyphenyl benzamides: New potent Trypanosoma brucei inhibitors” (Bioorg Med Chem, 2017):
Calls of active or inactive are those of the source. No cut-off for these calls is given here.

What was measured:
[1] = tested on: Trypanosoma brucei brucei; assay: Antiparasitic activity against Trypanosoma brucei brucei BF427 assessed as growth inhibition at 128 times EC50 pretreated for 24 hrs followed by compound washout measured after 10 days by light microscopic method; format: functional
[2] = Cytotoxicity against human CRL8155 cells assessed as growth inhibition after 48 hrs by Alamar blue assay; format: cell-based; conditions: crl8155, 48 h
[3] = Ratio of drug level in brain to plasma in mouse at 5 mg/kg, ip after 1 hr by LC-MS analysis; format: ADME, organism-based
Liver [4] = assay: Half life in human liver microsomes at 1.5 uM by LC-MS analysis; format: ADME, microsome
[5] = tested on: Trypanosoma brucei brucei; assay: Antiparasitic activity against Trypanosoma brucei brucei BF427 assessed as growth inhibition at 64 times EC50 pretreated for 96 hrs followed by compound washout measured after 10 days by light microscopic method; format: functional
[6] = tested on: Trypanosoma brucei brucei; assay: Antiparasitic activity against Trypanosoma brucei brucei BF427 assessed as growth inhibition at 64 times EC50 pretreated for 72 hrs followed by compound washout measured after 10 days by light microscopic method; format: functional
[7] = tested on: Trypanosoma brucei rhodesiense; assay: Antiparasitic activity against Trypanosoma brucei rhodesiense STIB900 infected in Swiss-Webster mouse assessed as cure rate at 50 mg/kg, bid administered via oral gavage from day 2 to 5 post infection measured after 60 days by microscopic method relative to control; format: functional
[8] = Cmax in mouse at 50 mg/kg, po by LC-MS analysis; format: ADME, organism-based; design: dose 50 mg/kg, route oral; conditions: in vivo
[9] = AUC (0 to 8 hrs) in mouse at 50 mg/kg, po by LC-MS analysis; format: ADME, organism-based; design: dose 50 mg/kg, time < 8 hr, route oral; conditions: in vivo
HepG2 = assay: Cytotoxicity against human HepG2 cells assessed as growth inhibition after 48 hrs by Alamar blue assay; format: cell-based; conditions: hepg2, 48 h
[10] = tested on: Trypanosoma brucei brucei; assay: Antiparasitic activity against Trypanosoma brucei brucei BF427 assessed as growth inhibition after 48 hrs by Alamar blue assay; format: functional; conditions: BF427, 48 h
[11] = tested on: Trypanosoma brucei brucei; assay: Antiparasitic activity against Trypanosoma brucei brucei BF427 assessed as growth inhibition at 128 times EC50 pretreated for 48 hrs followed by compound washout measured after 10 days by light microscopic method; format: functional
[12] = tested on: Trypanosoma brucei brucei; assay: Antiparasitic activity against Trypanosoma brucei brucei BF427 assessed as growth inhibition at 64 times EC50 pretreated for 48 hrs followed by compound washout measured after 10 days by light microscopic method; format: functional
[13] = tested on: Trypanosoma brucei brucei; assay: Antiparasitic activity against Trypanosoma brucei brucei BF427 assessed as growth inhibition at 16 times EC50 pretreated for 96 hrs followed by compound washout measured after 10 days by light microscopic method; format: functional
[14] = tested on: Trypanosoma brucei brucei; assay: Antiparasitic activity against Trypanosoma brucei brucei BF427 assessed as growth inhibition at 32 times EC50 pretreated for 24 hrs followed by compound washout measured after 10 days by light microscopic method; format: functional
[15] = tested on: Trypanosoma brucei rhodesiense; assay: Antiparasitic activity against Trypanosoma brucei rhodesiense STIB900 assessed as growth inhibition after 48 hrs by Alamar blue assay; format: functional; conditions: STIB900, 48 h
[16] = tested on: Trypanosoma brucei brucei; assay: Antiparasitic activity against Trypanosoma brucei brucei BF427 assessed as growth inhibition at 16 times EC50 pretreated for 48 hrs followed by compound washout measured after 10 days by light microscopic method; format: functional
Liver [17] = assay: Half life in mouse liver microsomes at 1.5 uM by LC-MS analysis; format: ADME, microsome
[18] = tested on: Trypanosoma brucei brucei; assay: Antiparasitic activity against Trypanosoma brucei brucei BF427 assessed as growth inhibition at 16 times EC50 pretreated for 72 hrs followed by compound washout measured after 10 days by light microscopic method; format: functional
Cytochrome P450 3A4 = Cytochrome P450 3A4 (Homo sapiens, UniProt P08684); assay: Inhibition of human CYP3A4; format: ADME
Cytochrome P450 3A4, sequence (P08684 whole entry): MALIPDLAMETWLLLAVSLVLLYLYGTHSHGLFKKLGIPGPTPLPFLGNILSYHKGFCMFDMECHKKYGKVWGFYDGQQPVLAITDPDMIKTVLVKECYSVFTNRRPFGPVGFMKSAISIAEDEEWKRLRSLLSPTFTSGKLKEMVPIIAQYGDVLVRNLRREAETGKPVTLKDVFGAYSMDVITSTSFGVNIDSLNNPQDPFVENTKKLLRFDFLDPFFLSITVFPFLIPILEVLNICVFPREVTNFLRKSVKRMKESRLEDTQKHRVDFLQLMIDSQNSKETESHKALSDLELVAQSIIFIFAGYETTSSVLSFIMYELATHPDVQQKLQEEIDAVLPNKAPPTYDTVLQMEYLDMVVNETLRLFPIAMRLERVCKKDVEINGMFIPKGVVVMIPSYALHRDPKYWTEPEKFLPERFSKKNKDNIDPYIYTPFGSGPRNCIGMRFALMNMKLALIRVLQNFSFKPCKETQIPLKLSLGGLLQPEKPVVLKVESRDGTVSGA

[19] = tested on: Trypanosoma brucei brucei; assay: Antiparasitic activity against Trypanosoma brucei brucei TREU667 infected in mouse assessed as decrease in parasitemia at 10 mg/kg, ip administered as single dose on day 21 post infection measured on day 37 by microscopic method; format: functional, organism-based
[20] = tested on: Trypanosoma brucei brucei; assay: Antiparasitic activity against Trypanosoma brucei brucei TREU667 infected in mouse assessed as decrease in parasitemia at 10 mg/kg, ip administered as single dose on day 21 post infection measured on day 50 to 51 by microscopic method; format: functional, organism-based
[21] = tested on: Trypanosoma brucei brucei; assay: Antiparasitic activity against Trypanosoma brucei brucei TREU667 infected in mouse assessed as decrease in parasitemia at 10 mg/kg, ip administered as single dose on day 21 post infection measured on day 36 by microscopic method; format: functional, organism-based
[22] = tested on: Trypanosoma brucei brucei; assay: Antiparasitic activity against Trypanosoma brucei brucei TREU667 infected in mouse assessed as decrease in parasitemia at 10 mg/kg, ip administered as single dose on day 21 post infection measured on day 43 to 45 by microscopic method; format: functional, organism-based
[23] = tested on: Trypanosoma brucei brucei; assay: Antiparasitic activity against Trypanosoma brucei brucei TREU667 infected in mouse assessed as decrease in parasite levels in brain at 10 mg/kg, ip administered as single dose on day 21 post infection by microscopic method; format: functional, organism-based
[24] = tested on: Trypanosoma brucei brucei; assay: Antiparasitic activity against Trypanosoma brucei brucei TREU667 infected in mouse assessed as decrease in parasitemia at 10 mg/kg, ip administered as single dose on day 21 post infection measured on day 41 to 42 by microscopic method; format: functional, organism-based
[25] = tested on: Trypanosoma brucei brucei; assay: Antiparasitic activity against Trypanosoma brucei brucei TREU667 infected in mouse assessed as decrease in parasitemia at 10 mg/kg, ip administered as single dose on day 21 post infection measured on day 40 by microscopic method; format: functional, organism-based
[26] = tested on: Trypanosoma brucei brucei; assay: Antiparasitic activity against Trypanosoma brucei brucei TREU667 infected in mouse assessed as decrease in parasitemia at 10 mg/kg, ip administered as single dose on day 21 post infection measured on day 34 by microscopic method; format: functional, organism-based
[27] = tested on: Trypanosoma brucei brucei; assay: Antiparasitic activity against Trypanosoma brucei brucei TREU667 infected in mouse assessed as decrease in parasite levels in peripheries at 10 mg/kg, ip administered as single dose on day 21 post infection by microscopic method; format: functional, organism-based
[28] = tested on: Trypanosoma brucei brucei; assay: Antiparasitic activity against Trypanosoma brucei brucei TREU667 infected in mouse assessed as decrease in parasitemia at 10 mg/kg, ip administered as single dose on day 21 post infection measured on day 35 by microscopic method; format: functional, organism-based
[29] = tested on: Trypanosoma brucei brucei; assay: Antiparasitic activity against Trypanosoma brucei brucei TREU667 infected in mouse assessed as decrease in parasitemia at 10 mg/kg, ip administered as single dose on day 21 post infection measured on day 39 by microscopic method; format: functional, organism-based
[30] = tested on: Trypanosoma brucei brucei; assay: Antiparasitic activity against Trypanosoma brucei brucei TREU667 infected in mouse assessed as decrease in parasitemia at 10 mg/kg, ip administered as single dose on day 21 post infection measured on day 38 by microscopic method; format: functional, organism-based

Row | BPR [3] | t1/2 (Liver [4]) [min] | Cmax [8] [nM] | AUC(0-t) at 8 h [9] [µM·h] | EC50 [10] [µM] | Compound | CC50 [2] [µM] | growth inhibition (GI) [6] | Activity [7] | CC50 (HepG2) [µM] | growth inhibition (GI) [13] | growth inhibition (GI) [14] | other results
1 | 0.88 | > 60 | 1670 | 10.3 | 0.007 | Cl.NCCN(C(=O)c1ccccc1C(F)(F)F)c1ccc(OCc2ccc(Cl)cc2)cc1 | 3.08 | Active | 33% | 5.72 |  |  | growth inhibition (GI) [1]: Active; growth inhibition (GI) [5]: Active; growth inhibition (GI) [11]: Active
2 | 0.06 | 39 | 2070 | 10.9 | 0.015 | Cc1cc(C)cc(COc2ccc(N(CCN)C(=O)c3cccnc3Cl)cc2)c1.Cl.Cl | 5.12 | Active | 67 - 80% | 8.38 | Active | Active | growth inhibition (GI) [12]: Active
3 | 0.42 | > 60 | 530 | 3.42 | 0.031 | Cl.NCCN(C(=O)c1ccc(Cl)cc1Cl)c1ccc(OCc2ccc(Cl)cc2)cc1 | 2 |  | 67 - 80% | 2 | Active | Active | EC50 [15]: 0.005 µM; growth inhibition (GI) [16]: Active; t1/2 (Liver [17]): 35 min; growth inhibition (GI) [18]: Active; IC50 (Cytochrome P450 3A4): 0.179 µM
4 |  |  |  |  |  | N=C(N)c1ccc(/N=N/Nc2ccc(C(=N)N)cc2)cc1 |  |  |  |  |  |  | Activity [19]: Active; Activity [20]: inactive; Activity [21]: Active; Activity [22]: Active; Activity [23]: inactive; Activity [24]: Active; Activity [25]: Active; Activity [26]: Active; Activity [27]: Active; Activity [28]: Active; Activity [29]: Active; Activity [30]: Active
